US4265906A, “Low mammalian toxic and/or low fish toxic insecticides and/or acaricides” (priority 1978, dated 1981)
≈ marks a conversion by molar mass, not a printed value. Like-named read-outs stand apart in the source and are kept apart here.

Legend:
[1] = Oral toxicity test (Test Example 10); settings: in vivo, male mouse, corn oil
Experimental: The present compound (1) was dissolved or suspended in a corn oil, and the resulting solution was orally administered to a male mouse (18 to 22 g) at a rate of 0.2 ml/10 g body weight. After 24 hours, the mortality was examined to obtain the median lethal dose (LD50 mg/kg).

[2] = test system: Oryzias latipes / Nephotettix cincticeps; assay: Fish safety coefficient calculated from fish toxicity and insecticidal activity (Test Example 1); settings: for Safety coefficient to fishes (a)/(b): TLm48 (Oryzias latipes) divided by concentration in water at LC50 for N. cincticeps
Experimental: In order to make more clear the low fish toxicity and the high activity to target insects, which are charcteristic of the compounds of this invention, a fish safety coefficient was calculated from the test results of fish toxicity and insecticidal activity by the following equation and shown in Table 2. [formula]
In the case of N. cincticeps, calculation was based on a hyothetical concentration of the test compound in water obtained by assuming that a test preparation of the active ingredient content corresponding to LC50 (ppm) was sprayed over a submerged paddy field, 5 cm in depth of water, at a rate of 100 liters per 10 ares and total active ingredient was absorbed by the water.
For example, in the case of compound (1) of this invention, the quantity of water per 10 ares of the submerged paddy field, 5 cm in depth of water, is 50 tons. If a preparation of the active ingredient content equivalent to LC50 (ppm) of the compound (1) is sprayed at a rate of 100 liters per 10 ares, the concentration of the compound (1) in the water is 0.007 ppm. The fish toxicity [TLm48 ] of the compound (1) is 6.0 ppm. The fish safety coefficient (857.1) is obtained by dividing 6.0 by 0.007.

[3] = Fish toxicity test, median tolerance limit 48 hours (Test Example 1); format: in vivo, Oryzias latipes (killifish); settings: in vivo; Oryzias latipes, 48 hours; read-out: Fish toxicity TLm48 (a)
Experimental: (§1) Ten member group of Oryzias latipes (0.2-0.3 g/fish) was released in a 10-liter glass vessel containing 10 liters of a test preparation which was dissolved or suspended in "Tween 80" and diluted successively with dechlorinated tap water. After 48 hours, the dead and alive were counted to determine median tolerance limit (48 hours) [TLm48 (ppm)] value.

[4] = test system: R-type Nephotettix cincticeps; assay: Insecticidal activity test, activity to Nephotettix cincticeps (Test Example 1); format: in vivo
Experimental: 2. Insecticidal activity test.
Test emulsion preparations were prepared in the same manner as in Formulation Example 1.
Activity to Nephotettix cinciticips
The test insect was resistant to carbamates (hereinafter referred to as R-type). The active ingredient content of test preparation was varied in 4 levels within the range of 500 to 1 ppm. The test preparation was sprayed over 180-ml plastic cups grown with rice plant one-month old from sowing and placed on a turn table, the application rate having been 15 cc/2 cups. After air drying, the plant was covered with a wire-screen cage. A group of 15 female adults of R-type Nephotettix cincticeps was released in each cage and kept at 26° C. in an artificial climate condition. After 24 hours, the dead and alive were observed. The median lethal concentration [LC50 (ppm)] was calculated from the mortality determined by 3-repetition test.

[5] = Toxicity to carps (Test Example 12); format: in vivo; settings: carp, dechlorinated tap water, read-out: TLm48
Experimental: (§2) The dust of the present compound (1) prepared in Formulation Example 2 was diluted with dechlorinated tap water to a predetermined concentration of active ingredient. Ten liters of the test solution was placed in a 10-liter glass vessel, and 10 killifishes (Oryzias latipes) were liberated therein. After 48 hours, the dead and alive were examined, and TLm48 (ppm) was calculated from the concentration of active ingredient.
Toxicity to carps was tested according to the test method for toxicity to fishes described in Test Example 11, and TLm48 (ppm) values after 48 hours were obtained.

[6] = Fish toxicity of dust, killifishes (Test Example 11); format: in vivo; settings: dechlorinated tap water, dust of Formulation Example 2, Oryzias latipes, read-out: TLm48
Experimental: as §2

[7] = test system: carmine mites (Tetranychus cinnabarinus); assay: Acaricidal test on rice plants, carmine mites (Test Example 8); format: in vivo; settings: 500 ppm, after 10 days
Experimental: The emulsifiable concentrate of the present compound (1) prepared in Formulation Example 1 was diluted with water so that the concentration of active ingredient was 500 ppm. The dilute solution was then thoroughly sprayed on rice plants (grown in a 1/10,000 are Wagner's pot) on which carmine mites (Tetranychus cinnabarinus) in all stages were made parasitic.

[8] = test system: full grown larvae of Aedes aegypty (Culex pipiens pallens); assay: Mosquito larvae test (Test Example 7); format: in vivo; settings: 24 hours, read-out: larvae killed
Experimental: The emulsifiable concentrate of the present compound (1) prepared in Preparation example 1 was diluted with distilled water so that the concentration of active ingredient was 0.1 ppm. One hundred milliliters of the dilute solution was placed in a 180-ml plastic cup, and 30 full grown larvae of Aedes aegypty (Culex pipiens pallens) were liberated therein. After 24 hours, 100% of the larvae could be killed.

[9] = test system: third instar larvae of rice stem borer (Chilo suppressalis); assay: Rice seedling dipping test, rice stem borer (Test Example 6); format: in vivo; settings: 240 h, 10 days, read-out: larvae killed
Experimental: The emulsifiable concentrate of the present compound (1) prepared in Formulation Example 1 was diluted with water so that the concentration of active ingredient was 500 ppm. Five rice seedlings which had elapsed 10 days after sowing were dipped in the dilute solution and air-dried. The rice seedlings and 10 third instar larvae of rice stem borer (Chilo suppressalis) were placed in a plastic cup (diameter 5.5 cm, height 3.5 cm) which was then placed in an artificial climate chamber kept at 26° C.

[10] = test system: killifishes (Oryzias latipes); assay: Model paddy field box test, killifishes (Test Example 13); format: in vivo; settings: wettable powder, 100 ppm, 100 liter/10 are, water depth 5 cm, after 48 hours
Experimental: (§3) The wettable powder of the present compound (1) prepared in Formulation Example 3 was diluted with water so that the concentration of active ingredient was 100 ppm. Soil was placed in a plastic box [5m×5m×2m (deep)] to a level of 50 cm from the bottom, and rice plants about 50 cm high were transplanted at intervals of 50 cm. Water was then placed in the bos so that water depth was 5 cm, and 20 killifishes (Oryzias latipes) were liberated therein. Thereafter, the above dilute solution was sprayed on the box at a rate of 100 liter/10 are. The solution fell on the rice plants as well as on the water surface.
(§4) One hour after treatment, 100 female adults of green rice leafhopper (Nephotettix cincticeps) were liberated in the box which was immediately covered with a net.

[11] = test system: green rice leafhopper (Nephotettix cincticeps); assay: Model paddy field box test, green rice leafhopper (Test Example 13); format: in vivo; settings: wettable powder, 100 ppm, 100 liter/10 are, after 48 hours
Experimental: as §3, §4

[12] = test system: Oryzias latipes; assay: Fish toxicity test, median tolerance limit 48 hours (Test Example 1); format: in vivo, Oryzias latipes (killifish); settings: killifish, in words
Experimental: as §1

[13] = test system: Laodelphax striatellus; assay: Insecticidal activity, Laodelphax striatellus (Test Example 4); format: in vivo; settings: Laodelphax striatellus female adults, 24 hours, 26° C.
Experimental: The emulsion preparation containing the compound (1) of this invention, described in Formulation Example 1, was diluted with water. The active ingredient content of the test prepartion was varied in 4 levels within the range of 150 to 10 ppm. The test preparation was sprayed over 180 ml plastic cups grown with rice plant and placed on a turn table the application rate having been 15 cc/2 cups. After air drying, the plant was covered with a wire-screen cage. A group of 15 female adults of Laodelphax striatellus was released in each cage and kept at 26° C. in an artificial climate condition. After 24 hours, the dead and alive were observed. The median lethal concentration [LC50 (ppm)] was calculated from the mortality determined by 3-repetition test.

[14] = test system: green rice leafhopper (Nephotettix cincticeps); assay: Residual effect test (Test Example 9); format: in vivo; settings: 400 ppm, 24 hours
Experimental: The emulsifiable concentrate of the present compound (1) prepared in Formulation Example 1 was diluted with water so that the concentration of active ingredient was 400 ppm. Thereafter, 20 cc of the dilute solution was sprayed on rice plants grown in a 1/10,000 are Wagner's pot. The rice plants were air-dried and covered with a wire-screen cage, and 15 female adults of green rice leafhopper (Nephotettix cincticeps) were liberated therein. After 24 hours, the dead and alive were examined to obtain mortality. In order to examine the residual effect, the pot was then left as it was for 7 days, and the test insects were liberated in the same manner as above. After 24 hours, the mortality was examined. The experiment was carried out in a greenhouse and the number of repetitions was three.

[15] = test system: WHO strain housefly female adults (Musca domestica); assay: Topical application to housefly (Test Example 5); format: in vivo; settings: 24 hours
Experimental: The present compound (1) was diluted with acetone to four different concentrations.
The acetone dilute solution was topically applied to the ventral thorax of WHO strain housefly female adults (Musca domestica), at a rate of 0.5 μl/adult by means of a microsyringe.
The adults were then liberated in a plastic cup of 12 cm in diameter and given a 1% sugar water. After 24 hours, the dead and alive were examined. The median lethal does (LD50 μg/adult) was obtained from the mortality of 50 adults per group.

[16] = test system: R-type Nephotettix cincticeps; assay: Mortality by isomer mixtures on rice plant (Test Example 2); format: in vivo; settings: 10 ppm active ingredient, 24 hours
Source text: The present compound (1) and (2) were mixed in a predetermined proportion, formulated into an emulsifiable concentrate according to Formulation Example 1 and diluted with water so that the amount of active ingredient was 10 ppm.
The test preparation was sprayed over rice plant in tillering stage planted in a 1/10,000 are Wagner pot, at a rate of 15 cc per pot. After airdrying, the plant was covered with a wire-screen cage into which were released 15 female adults of R-type Nephotettix cincticeps. The pot was kept at 26° C. in an artificial climate condition. After 24 hours, the dead and alive were observed and the mortality was obtained by 3-repetition test.

[17] = R-type (carbamate-resistant) Nephotettix cincticeps female adults, 24 hours, 26° C., read-out: LC50

Row | Compound | LD50 at 24 h [1] | Safety coefficient to fishes (a)/(b) [2] | LC50 at 48 h [3] | LC50 [4, 17] | other results
1 | CC1(C)C(C=C(Cl)Cl)C1C(=O)OCc1cccc(Oc2ccccc2)c1 (racemic) [(C), m-phenoxybenzyl dl-cis,trans-2,2-dimethyl-3-(2,2-dichlorovinyl)cyclopropanecarboxylate] | 650 mg/kg | 0.8 | 0.027 µg/mL (≈ 0.069 µM) | 18 µg/mL (≈ 46 µM) | 
2 | CC1(C)C(C=C(Cl)Cl)C1C(=O)OC(C#N)c1cccc(Oc2ccc(F)cc2)c1 (racemic) [(E), m-(p-fluorophenoxy)-α-cyanobenzyl dl-cis,trans-2,2-dimethyl-3-(2,2-dichlorovinyl)cyclopropanecarboxylate] | 300 mg/kg | 0.3 | 0.003 µg/mL (≈ 0.00691 µM) | 5 µg/mL (≈ 11.5 µM) | 
3 | CC1(C)C(C=C(Cl)Cl)C1C(=O)OC(C#N)c1cccc(Oc2ccccc2)c1 (racemic) [Reference compound (D), m-phenoxy-α-cyanobenzyl dl-cis,trans-2,2-dimethyl-3-(2,2-dichlorovinyl)-cyclopropanecarboxylate] | 112 mg/kg | 2.6 | 0.026 µg/mL (≈ 0.0625 µM) | 5 µg/mL (≈ 12 µM) | LC50 at 48 h [5]: ≤ 0.01 µg/mL
4 | CC1(C)[C@H](C=C(Cl)Cl)[C@H]1C(=O)OC(C#N)c1cccc(Oc2ccc(Br)cc2)c1 (relative stereo) [Compound (1), m-(p-bromophenoxy)-α-cyanobenzyl dl-trans-2,2-dimethyl-3-(2,2-dichlorovinyl)cyclopropanecarboxylate] | > 2000 mg/kg | 857.1 | 6 µg/mL (≈ 12.1 µM) | 3.5 µg/mL (≈ 7.07 µM) | LC50 at 48 h [6]: > 10 µg/mL; degree of damage by the carmine mites [7]: the spreading of damage could be prevented; mortality at 0.1 ppm [8]: 100%; safety coefficient to fishes compared with reference compounds ([2]; in words): shows a very high value as compared with that of the reference compounds; mortality at 500 ppm [9]: 100%; survival of killifishes [10]: all of the killifishes were alive; green rice leafhoppers found [11]: no green rice leafhoppers were found; LC50 at 48 h [5]: > 10 µg/mL; toxicity to killifish compared with reference compounds [12]: lower in toxicity to killifish than the reference compounds (A), (C), (D) and (E); insecticidal activity compared with reference compounds ([4]; Nephotettix cincticeps, in words): higher in insecticidal activity than the reference compounds (A), (C) and (F); LC50 [13]: 70 µg/mL (≈ 141 µM); Mortality (%), effect immediately after treatment [14]: 100%; Mortality (%), effect 7 days after treatment ([14]; insects liberated 7 days after treatment): 100%; LD50 [15]: 0.035 μg/adult
5 | CC(C)=CC1C(C(=O)OCc2cccc(Oc3ccccc3)c2)C1(C)C (racemic) [(B), m-phenoxybenzyl dl-cis,trans chrysanthemate] |  |  |  |  | mortality at 10 ppm [16]: 10%
6 | CC1(C)C(C=C(Cl)Cl)C1C(=O)OC(C#N)c1cccc(Oc2ccc(Br)cc2)c1 (racemic) [(A), m-(p-bromophenoxy)-α-cyanobenzyl dl-cis, trans-2,2-dimethyl-3-(2,2-dichlorovinyl)cyclopropanecarboxylate] |  | 56.3 | 0.9 µg/mL (≈ 1.82 µM) | 8 µg/mL (≈ 16.2 µM) | 
7 | CNC(=O)Oc1ccc(C)c(C)c1 [(F)] | 60 mg/kg | 17.0 | 11.9 µg/mL (≈ 66.4 µM) |  | LC50 ([4]; Nephotettix cincticeps, 24 h): 350 µg/mL (≈ 1950 µM)
